Activity calls are given as the source filed them. For most assays here, no stated cut-off is given here; in the data, actives have a measured EC50 and inactives only a lower limit.
Tests used:
[1] = cytotoxicity toward NIH3T3 fibroblasts, dose response, counter-screen, cell-based, ATP luminescence, mouse fibroblasts (AID 2010); type: functional;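 further: cells exposed to compound for about 90 hours before reading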
[2] = inhibitors of intracellular T. cruzi replication, confirmation, NIH3T3 host cells, beta-gal luminescence (AID 2044); type: functional, cell-based;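 further: intracellular parasites grown in NIH/3T3 mouse fibroblasts as host cells; luminescent beta-galactosidase reporter signal from transgenic T. cruzi replicating inside host cells; inhibitors lower the luminescence signal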
Streptococcus = assay: Group A Streptococcus viability loss, dose response, counter-screen for streptokinase expression inhibitor project, luminescence, BacTiterGlo (AID 1915); type: functional, organism-based;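 further: potency for reduction of bacterial viability or growth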
[3] = tested on: Streptococcus sp. 'group A'; assay: growth inhibition of control SK(-) GAS strain, dose response, counter-screen for streptokinase expression inhibitor project, luminescence, kanamycin, BacTiterGlo, confirmation (AID 1900); type: functional, organism-based
Cytochrome P450 2D6 = Cytochrome P450 2D6 (Homo sapiens, UniProt P10635);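 further: CYP2D6 member of a cytochrome P450 panel assay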
Streptokinase A = target: T1, Streptokinase A (Streptococcus pyogenes serotype M1, UniProt P10520); assay: S. pyogenes streptokinase expression inhibitors, potency, dose response, plasminogen activation absorbance, OD405 (AID 1914); type: functional, Streptococcus pyogenes M1 GAS;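 further: secreted streptokinase activity via plasminogen activation per viability signal from cell pellet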
T1 sequence (P10520 whole entry): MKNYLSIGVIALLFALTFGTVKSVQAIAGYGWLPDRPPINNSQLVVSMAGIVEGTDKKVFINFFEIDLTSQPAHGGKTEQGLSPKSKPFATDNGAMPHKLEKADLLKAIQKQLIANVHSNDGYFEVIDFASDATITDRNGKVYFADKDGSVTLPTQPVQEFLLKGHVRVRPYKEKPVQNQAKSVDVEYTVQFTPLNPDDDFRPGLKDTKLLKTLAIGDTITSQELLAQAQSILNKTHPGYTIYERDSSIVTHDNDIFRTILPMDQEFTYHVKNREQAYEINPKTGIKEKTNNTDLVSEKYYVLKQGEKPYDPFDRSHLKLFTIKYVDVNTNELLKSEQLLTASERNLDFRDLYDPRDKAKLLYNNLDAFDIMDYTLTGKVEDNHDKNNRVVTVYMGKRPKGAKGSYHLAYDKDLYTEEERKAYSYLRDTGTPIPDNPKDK

[4] = target: T2, Corticotropin-releasing factor receptor 2/Corticotropin-releasing factor-binding protein (Homo sapiens, UniProt P24387+Q13324); assay: activators of CRF receptor 2 with binding protein – uHTS hits, confirmation (AID 602473); type: functional; conditions: read-out: EC50_Mean
T2 sequence (Q13324 whole entry): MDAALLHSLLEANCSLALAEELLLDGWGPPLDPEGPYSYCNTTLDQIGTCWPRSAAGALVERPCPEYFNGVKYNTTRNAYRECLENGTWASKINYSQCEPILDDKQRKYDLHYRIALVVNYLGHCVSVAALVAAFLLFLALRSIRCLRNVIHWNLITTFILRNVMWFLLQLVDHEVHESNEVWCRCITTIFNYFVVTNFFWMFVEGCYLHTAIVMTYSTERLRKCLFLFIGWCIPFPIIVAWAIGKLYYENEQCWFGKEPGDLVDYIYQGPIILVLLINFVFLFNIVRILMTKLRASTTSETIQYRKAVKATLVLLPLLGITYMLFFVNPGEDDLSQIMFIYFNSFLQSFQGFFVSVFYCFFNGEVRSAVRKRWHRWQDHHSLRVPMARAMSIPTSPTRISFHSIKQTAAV
T2 sequence (P24387 whole entry): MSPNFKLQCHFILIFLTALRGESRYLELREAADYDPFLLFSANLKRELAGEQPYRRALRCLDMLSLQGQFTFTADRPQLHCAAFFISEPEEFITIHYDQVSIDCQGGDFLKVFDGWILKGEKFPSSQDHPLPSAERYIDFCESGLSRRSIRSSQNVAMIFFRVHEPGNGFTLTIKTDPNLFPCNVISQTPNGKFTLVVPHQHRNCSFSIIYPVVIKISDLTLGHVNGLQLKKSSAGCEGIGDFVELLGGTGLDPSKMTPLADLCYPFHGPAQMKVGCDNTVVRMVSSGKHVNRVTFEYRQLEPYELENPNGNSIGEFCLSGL

Cytochrome P450 2D6, sequence (P10635 whole entry): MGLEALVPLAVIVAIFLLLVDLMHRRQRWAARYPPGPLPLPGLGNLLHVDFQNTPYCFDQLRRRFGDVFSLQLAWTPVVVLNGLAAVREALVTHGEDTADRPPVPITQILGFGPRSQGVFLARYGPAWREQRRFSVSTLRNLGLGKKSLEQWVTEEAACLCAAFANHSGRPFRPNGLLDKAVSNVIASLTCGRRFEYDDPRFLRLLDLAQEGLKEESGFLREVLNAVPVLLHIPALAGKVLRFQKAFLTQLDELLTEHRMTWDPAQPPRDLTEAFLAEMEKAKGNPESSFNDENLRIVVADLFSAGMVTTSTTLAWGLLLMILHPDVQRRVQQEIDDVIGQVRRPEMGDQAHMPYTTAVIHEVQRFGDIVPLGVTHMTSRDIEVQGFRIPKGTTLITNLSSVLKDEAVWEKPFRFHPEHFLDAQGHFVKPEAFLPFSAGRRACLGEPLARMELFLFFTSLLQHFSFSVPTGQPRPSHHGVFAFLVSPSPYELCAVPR

Cc1ccc(N/N=C/C=C/c2ccco2)cc1
EC50 [1]: > 30 µM (not active)
EC50 [2]: 3.31 µM (active)

Cn1c2ccccc2c(=O)c2cc(C#Cc3ccc(N)cc3)ccc21
EC50 (Streptococcus): 3.34 µM (active)
EC50 [3]: 0.713 µM (active)

O=C(c1cnccn1)N1CCC2(CCCN(c3ncccn3)C2)CC1
AC50 (Cytochrome P450 2D6): 15.8 µM (inconclusive)

Cc1noc(C)c1-c1ccc2ncnc(NCc3cccnc3)c2c1
AC50 (Cytochrome P450 2D6): 12.6 µM (inconclusive)

Cc1ccccc1S(=O)(=O)Cc1ccc(C(=O)NCCN2CCN(Cc3ccccc3)CC2)o1
EC50 [1]: > 60 µM (not active)
EC50 [2]: 1.4 µM (active)

Fc1ccc(-c2cc(C(F)(F)F)nc(N3CCCCC3)n2)cc1
EC50 (Streptococcus): 13.1 µM (active)
EC50 (Streptokinase A): 6.14 µM (active)
EC50 [3]: 10.3 µM (active)

Cc1ccc(-c2nn(C(C)(C)C)c3ncnc(NS(=O)(=O)c4ccc([N+](=O)[O-])cc4)c23)cc1
EC50 [1]: > 60 µM (not active)
EC50 [2]: 2.33 µM (active)

N#Cc1ccc(CSc2nnc(-c3ccncc3)n2CCc2ccccc2)cc1
EC50 [1]: > 60 µM (not active)
EC50 [2]: 0.772 µM (active)

COc1cccc(N/C(SCc2cccc([N+](=O)[O-])c2)=C(/C#N)C(N)=O)c1
EC50 [1]: > 60 µM (not active)
EC50 [2]: 4.17 µM (active)

CC(C)Oc1cccc(C(=O)C2CCCN(Cc3cnc(N4CCOCC4)s3)C2)c1 (stereo unspecified)
EC50 [1]: > 30 µM (not active)
EC50 [2]: 0.146 µM (active)

CN1CCc2cc3c(cc2[C@@H]1[C@@H]1C(=O)Oc2c1ccc1c2OCO1)OCO3
AC50 (Cytochrome P450 2D6): 39.8 µM (inconclusive)

CC(C)(C)CC(=O)N1CCC(c2nc(O)c3nnn(Cc4c(F)cccc4Cl)c3n2)CC1
EC50 (Streptococcus): 16.7 µM (active)
EC50 (Streptokinase A): > 150 µM (not active)

CCOc1ccc(NS(=O)(=O)c2ccc(NC(=O)[C@@H]3CCCC[C@@H]3C(=O)O)cc2)cc1
EC50 [4]: > 53 µM (inactive)

CC1CCCN(CCOCCSc2ccccc2)C1 (stereo unspecified)
EC50 [1]: > 60 µM (not active)
EC50 [2]: 0.297 µM (active)

COc1ccc(/C=C(/C(=O)c2ccc(Cl)cc2Cl)n2cncn2)cc1
EC50 [1]: 31.4 µM (active)
EC50 [2]: 0.423 µM (active)

O=C(CNc1cccc2ccccc12)N/N=C/c1ccc[nH]1
EC50 (Streptococcus): > 150 µM (not active)
EC50 (Streptokinase A): > 150 µM (not active)
EC50 [3]: > 150 µM (not active)

Cc1cc(S(=O)(=O)NCCC2=CCCCC2)ccc1Br
EC50 (Streptococcus): > 150 µM (not active)
EC50 (Streptokinase A): 10.4 µM (active)
EC50 [3]: 9.73 µM (active)

CNc1c([N+](=O)[O-])nn(-c2ccc3c(c2)OCCO3)[n+]1[O-]
EC50 [1]: 20.1 µM (active)
EC50 [2]: 0.68 µM (active)

Cc1c(C(=O)Nc2ccc(S(=O)(=O)N(C)C3CCN(C)CC3)cc2)oc2c(Cl)cccc12
EC50 [1]: > 30 µM (not active)
EC50 [2]: 0.85 µM (active)

CN(C)CCCN(C(=O)c1cc2ccccc2oc1=O)c1nc2c(F)cccc2s1
EC50 [1]: > 60 µM (not active)
EC50 [2]: 0.118 µM (active)

O=C(Nc1cccc2ncccc12)c1ccc2c(c1)OCCO2
EC50 [4]: > 53 µM (inactive)

Cc1cccc(N2CCN(C(=O)c3ccc(Cl)c(S(=O)(=O)N4CCc5ccccc5C4)c3)CC2)c1C
EC50 [1]: > 60 µM (inconclusive)
EC50 [2]: 1.13 µM (active)

O=C(Nc1nc(-c2ccccc2)cs1)c1cccc([N+](=O)[O-])c1
EC50 [1]: > 60 µM (not active)
EC50 [2]: 2.4 µM (active)

COc1ccc(CN2CCN(Cc3cccc4nonc34)CC2CCO)c(C)c1C (stereo unspecified)
EC50 [1]: > 60 µM (not active)
EC50 [2]: 0.403 µM (active)

CC1=C(C)CC2(C(=O)NC(=S)NC2=O)C(C)C1 (stereo unspecified)
EC50 [4]: > 53 µM (inactive)

C/C=C/c1ccc(OCC(O)CN(C)Cc2ccc(SC)cc2)c(OC)c1 (stereo unspecified)
EC50 [1]: > 60 µM (not active)
EC50 [2]: 0.388 µM (active)

CCCC[C@@H]1C[C@H]1C(NC(=O)c1ccco1)c1ccc(Cl)cc1 (stereo partly specified)
AC50 (Cytochrome P450 2D6): 39.8 µM (inconclusive)

Cc1cc(S(=O)(=O)NCc2ccccc2)ccc1OCC(=O)NCC1CCCO1 (stereo unspecified)
EC50 [4]: > 53 µM (inactive)

— ChEMBL document CHEMBL1201862, “PubChem BioAssay data set” (2004)
